Reference: BindingDB's records for patent US20230295119 (Gossamer Bio Services, 2023)

Key:
[1] = JAK1, JAK2, and JAK3 Activity
[2] = molecular target: T1, Tyrosine-protein kinase JAK3 (Homo sapiens, UniProt P52333); experiment: JAK1, JAK2, and JAK3 Activity
T1 sequence (P52333 whole entry): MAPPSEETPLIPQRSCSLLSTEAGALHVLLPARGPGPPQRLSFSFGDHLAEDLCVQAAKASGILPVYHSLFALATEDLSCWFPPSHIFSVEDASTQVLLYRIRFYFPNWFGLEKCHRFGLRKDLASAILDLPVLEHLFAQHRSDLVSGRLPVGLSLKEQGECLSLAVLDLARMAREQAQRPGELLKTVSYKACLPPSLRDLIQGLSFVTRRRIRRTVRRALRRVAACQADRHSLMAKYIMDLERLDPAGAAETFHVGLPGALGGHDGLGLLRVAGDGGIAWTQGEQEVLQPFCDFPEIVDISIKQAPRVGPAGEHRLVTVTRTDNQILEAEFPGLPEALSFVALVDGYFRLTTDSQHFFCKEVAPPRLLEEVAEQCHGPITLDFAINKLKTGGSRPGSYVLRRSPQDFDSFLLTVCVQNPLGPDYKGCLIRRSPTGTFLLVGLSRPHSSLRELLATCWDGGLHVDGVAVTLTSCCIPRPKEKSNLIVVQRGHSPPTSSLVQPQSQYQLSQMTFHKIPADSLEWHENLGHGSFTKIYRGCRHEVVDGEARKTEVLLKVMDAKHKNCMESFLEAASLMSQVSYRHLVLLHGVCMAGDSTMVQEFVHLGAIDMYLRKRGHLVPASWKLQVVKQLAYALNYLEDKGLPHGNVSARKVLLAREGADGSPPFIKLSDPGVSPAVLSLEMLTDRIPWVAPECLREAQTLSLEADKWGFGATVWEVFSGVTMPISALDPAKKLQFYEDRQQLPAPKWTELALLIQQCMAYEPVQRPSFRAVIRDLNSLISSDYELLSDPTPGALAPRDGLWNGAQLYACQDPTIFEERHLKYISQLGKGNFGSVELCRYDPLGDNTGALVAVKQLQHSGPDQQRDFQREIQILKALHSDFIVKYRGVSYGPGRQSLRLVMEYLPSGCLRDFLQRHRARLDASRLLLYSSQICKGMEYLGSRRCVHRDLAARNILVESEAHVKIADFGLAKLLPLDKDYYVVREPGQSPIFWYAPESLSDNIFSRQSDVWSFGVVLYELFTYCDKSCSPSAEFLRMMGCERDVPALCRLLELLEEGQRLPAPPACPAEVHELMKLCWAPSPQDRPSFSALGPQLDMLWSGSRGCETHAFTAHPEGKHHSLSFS
Method: (§1) Compounds described herein were tested for the ability to inhibit activity of human JAK1, JAK2 and JAK3, which was achieved using TR-FRET assays. Briefly, the Kinases JAK1 (2.5 nM), JAK2 (0.025 nM) and JAK3 (0.0125 nM) were incubated with a series of concentrations of the test compound in the presence of […] (biotin-ahx- […]-CONH2), 2 nM Eu-labeled anti-pTYRPY20 and 80 nM Streptavidin APC. After 30 min incubation at RT, ATP ([…] respectively for JAK1, JAK2 and JAK3) was added to start the reaction, and incubated for 80 min at RT. The reaction was stopped by adding detection buffer and incubated for a further 60 min at RT. The samples were analyzed using Envision to calculate % inhibition at each of the series of concentrations of the test compound. The IC50 value of the compounds for each of the kinases were calculated using XLFit software.

[3] = molecular target: Tyrosine-protein kinase JAK1 (Homo sapiens, UniProt P23458); experiment: JAK1, JAK2, and JAK3 Activity
Method: as §1

[4] = molecular target: Tyrosine-protein kinase JAK2 (Homo sapiens, UniProt O60674); experiment: JAK1, JAK2, and JAK3 Activity
Method: as §1

Sequence of Tyrosine-protein kinase JAK1 (P23458 whole entry): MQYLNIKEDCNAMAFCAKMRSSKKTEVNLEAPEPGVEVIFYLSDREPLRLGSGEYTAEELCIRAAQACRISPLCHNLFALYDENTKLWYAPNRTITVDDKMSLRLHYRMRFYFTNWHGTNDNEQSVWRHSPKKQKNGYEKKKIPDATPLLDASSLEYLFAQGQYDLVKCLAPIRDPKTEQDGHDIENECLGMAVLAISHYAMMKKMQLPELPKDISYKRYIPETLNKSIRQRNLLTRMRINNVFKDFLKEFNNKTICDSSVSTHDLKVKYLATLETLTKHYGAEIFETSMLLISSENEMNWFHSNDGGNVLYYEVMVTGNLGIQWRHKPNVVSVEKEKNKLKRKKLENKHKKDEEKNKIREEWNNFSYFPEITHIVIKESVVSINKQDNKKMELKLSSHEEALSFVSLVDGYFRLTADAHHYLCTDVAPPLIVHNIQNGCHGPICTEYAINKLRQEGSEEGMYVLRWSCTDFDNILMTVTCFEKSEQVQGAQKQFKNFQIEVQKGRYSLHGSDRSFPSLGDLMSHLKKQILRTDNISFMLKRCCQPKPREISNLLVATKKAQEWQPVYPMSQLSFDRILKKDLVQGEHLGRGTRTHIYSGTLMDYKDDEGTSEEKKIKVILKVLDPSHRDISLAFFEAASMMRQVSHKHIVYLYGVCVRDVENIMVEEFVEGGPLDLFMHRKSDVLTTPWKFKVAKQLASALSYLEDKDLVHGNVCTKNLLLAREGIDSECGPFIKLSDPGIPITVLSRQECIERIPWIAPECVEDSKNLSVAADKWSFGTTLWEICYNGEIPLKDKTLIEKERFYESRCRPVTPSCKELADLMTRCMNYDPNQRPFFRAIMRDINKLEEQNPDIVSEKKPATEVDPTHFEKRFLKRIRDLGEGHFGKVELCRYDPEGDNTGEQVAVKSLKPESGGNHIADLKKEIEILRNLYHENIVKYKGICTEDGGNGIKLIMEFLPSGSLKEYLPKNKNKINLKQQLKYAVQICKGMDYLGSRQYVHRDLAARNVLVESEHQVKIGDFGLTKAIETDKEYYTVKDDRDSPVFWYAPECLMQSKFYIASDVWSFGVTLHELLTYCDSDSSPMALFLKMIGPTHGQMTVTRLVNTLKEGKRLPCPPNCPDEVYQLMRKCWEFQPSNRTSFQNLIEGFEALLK
Sequence of Tyrosine-protein kinase JAK2 (O60674 whole entry): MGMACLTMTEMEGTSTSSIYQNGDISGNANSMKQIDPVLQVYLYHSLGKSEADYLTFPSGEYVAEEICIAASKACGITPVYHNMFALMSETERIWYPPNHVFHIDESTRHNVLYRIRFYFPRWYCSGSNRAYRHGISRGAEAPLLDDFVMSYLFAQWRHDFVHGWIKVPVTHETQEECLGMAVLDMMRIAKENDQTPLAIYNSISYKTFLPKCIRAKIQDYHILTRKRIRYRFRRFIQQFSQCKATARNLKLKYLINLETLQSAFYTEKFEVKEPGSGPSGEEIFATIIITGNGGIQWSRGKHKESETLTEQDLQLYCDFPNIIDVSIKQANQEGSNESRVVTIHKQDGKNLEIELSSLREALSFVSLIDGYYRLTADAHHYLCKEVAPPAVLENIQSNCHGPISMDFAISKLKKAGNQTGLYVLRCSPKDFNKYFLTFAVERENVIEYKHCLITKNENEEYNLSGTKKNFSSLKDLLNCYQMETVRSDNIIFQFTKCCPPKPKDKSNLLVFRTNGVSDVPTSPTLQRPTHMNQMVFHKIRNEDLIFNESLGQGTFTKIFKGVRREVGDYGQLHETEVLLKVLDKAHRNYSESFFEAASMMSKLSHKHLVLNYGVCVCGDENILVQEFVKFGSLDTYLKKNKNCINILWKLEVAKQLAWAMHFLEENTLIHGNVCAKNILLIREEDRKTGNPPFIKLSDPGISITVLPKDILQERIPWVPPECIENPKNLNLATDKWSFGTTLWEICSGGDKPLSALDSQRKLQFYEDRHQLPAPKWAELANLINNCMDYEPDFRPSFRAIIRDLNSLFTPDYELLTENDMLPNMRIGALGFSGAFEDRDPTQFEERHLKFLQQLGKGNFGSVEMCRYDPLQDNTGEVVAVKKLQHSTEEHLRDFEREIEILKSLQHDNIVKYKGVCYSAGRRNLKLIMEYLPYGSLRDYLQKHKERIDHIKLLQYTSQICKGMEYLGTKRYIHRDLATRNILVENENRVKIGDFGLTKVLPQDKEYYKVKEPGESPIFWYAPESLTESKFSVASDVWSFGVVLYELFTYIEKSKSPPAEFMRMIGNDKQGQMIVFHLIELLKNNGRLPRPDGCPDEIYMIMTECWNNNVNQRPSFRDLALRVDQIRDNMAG

Row | IC50 [1] | IC50 [2] | IC50 [3] | IC50 [4] | SMILES
1 | < 5 nM | > 500 nM | > 500 nM |  | CCC(=O)c1cnc(Nc2cc(C(C)NC)ncn2)cc1Nc1cccc(-c2ncn(C)n2)c1OC (configuration not stated) [US20230295119, Compound 9PPPP]
2 |  | > 500 nM | > 500 nM |  | CCC(=O)c1cnc(Nc2ccc(CN3CCN(C)CC3)nn2)cc1Nc1cccc(-c2ncn(C)n2)c1OC [US20230295119, Compound 9PPP]
3 |  | > 500 nM | > 500 nM | > 500 nM | CCC(=O)c1cnc(Nc2cnc(O[C@@H]3CCN(CC)C3)cn2)cc1Nc1cccc(-c2ncn(C)n2)c1OC [US20230295119, Compound 18DDD]
4 | < 5 nM | > 500 nM | > 500 nM | > 500 nM | CCC(=O)c1cnc(Nc2cnc(OCCN3CCN(C)CC3)cn2)cc1Nc1cccc(-c2ncn(C)n2)c1OC [US20230295119, Compound 18FFF]
